Test results: patent US20060110456A1, “Method for biocidal and/or biostatic treatment and compositions therefor” (NATIONAL UNIVERSITY OF SINGAPORE, priority 2004, published 2006)
In brackets after ≈: the same amount, converted by molar mass. Entries after “also recorded” stand apart in the source; their conditions may differ. Structures can show the parent of a compound that is named as a salt.

Assays:
[1] = system: marine bacteria (ten strains); assay: Bio-adhesion assay (crystal violet microplate); type: cell-based, marine bacteria isolated from Singapore fouling communities; conditions: for Effect on bacterial adhesion: polystyrene or tissue culture surface as named in the value; for Effect of drugs on adhesion of bacteria: 50 μl of 125 μg ml^−1 drug + 200 μl bacteria, 2 hours
Protocol: The effect of pharmaceuticals on bacterial adhesion was analyzed using a modified microplate method adapted from Shea and Williamson (1990). This method consists of staining the attached bacteria with crystal violet, releasing the stain with sodium desoxycholate, and measuring the resulting absorbance of the crystal violet. The absorbance is proportional to the degree of bacterial adhesion to the surface.
Ten strains of bacteria (strain numbers 1, 4, 9, 14, 18, 20, 27, 28, 29 and 30) were chosen for this study. Flat bottom non-tissue culture treated polystyrene (hydrophobic, Falcon #351172) (referred to as polystyrene) and flat bottom tissue culture treated polystyrene (hydrophilic, Falcon #353072) microplates were used in the analyses. These two types of plates were chosen because they were sterile and offered two different kinds of surfaces to determine the adhesion preferences of the bacteria. Each test was done in duplicate. For the control and blank wells, 50 μl of sterile deionized water were added. For those wells that were to contain drugs, 50 μl of drugs at concentration of 125 μg ml^−1 were added. Then 200 μl of bacteria suspension in sterile seawater, whose absorbance had been adjusted to 0.6 at 600 nm using a spectrophotometer (Beckman), were added. Blanks contained 200 μl of sterile seawater.
The bacteria in suspension were allowed to attach for 2 hours at 28° C. Unattached cells were removed by pipetting out almost all trace of liquid and rinsed three times with 300 μl of sterile seawater each time. The attached cells were stained with 200 μl of crystal violet solution (0.1% w/v) in each well for 5 min. After removing the stain by pipetting, the wells were rinsed twice with 300 μl of sterile deionized water each time. Sodium desoxycholate (200 μl) solution (2% w/v) was then added to each well to extract the crystal violet from the stained cells for 10 min. The absorbance of the extracted solution was read at 590 nm using a microplate reader (Sunrise, Tecan, Switzerland).
The data were analyzed using T-test (Two-sample assuming unequal variances) to determine the significance of the absorbance values of each bacterial strain versus the blanks to determine whether there was adhesion, i.e. increase in absorbance. Each drug effect on adhesion was analyzed by comparing the absorbance of each bacterial strain minus the control blank versus bacteria in presence of drug minus the drug control. When the data is significant, there are bacterial cells attached to the surface in the control but in the presence of drugs, there is no attachment.

[2] = system: Bugula neritina larvae; assay: Bioassay against bryozoan larvae; type: in vivo; conditions: crude rank, best (1) to worst (8)
Protocol: Bugula neritina (Phylum Bryozoa, Class Gymnolaemata, Order Cheilostomatida) is a cosmopolitan species of bryozoan, commonly found in most marine fouling communities. The larvae are brooded in ovicells found on the stem of the colonies. When released, the larva will settle quickly on most surfaces, within a few minutes. At 24° C., the settled larvae forms the one-cell ancestrula, and after 48 hours, the lophophore has developed and extended for feeding.
Adult colonies of Bugula neritina were collected from fouling communities growing on the submerged pontoons on a floating fish farm located off Changi, Singapore. Adult animals were maintained in the open-circulation aquarium at St John's island marine laboratory, Singapore. The adults were kept in total darkness for 24 hours. On exposure to light, larvae were released after half an hour. […] Because the larvae will settle quickly, larvae were pipetted directly into test wells in 1 ml of seawater using a graduated glass pipette.
4 replicates were done for each treatment. After 24 hours, larvae were scored as settled, swimming or dead/deformed. The assay plates were usually kept for another 24 hours and checked again, to ascertain that the settled larvae had developed into viable colonies with lophophores. Two trials were repeated for each compound.
Bioassays were carried out using the method described above, in July 2003 during the peak spawning season for Bugula.

[3] = system: hard fouling (barnacles, serpulids, spirorbids); assay: Field testing of coated rods; type: in vivo; parameters: Total hard fouling, difference in mean cover (%), drug vs control / Barnacles, difference in mean cover (%), drug vs control: tested at 25 µg/ml of coating; Serpulids, difference in mean cover (%), drug vs control: tested at 25 µg/ml of coating mix; conditions: for Overall performance in field assay: crude rank, best (1) to worst (8)
Protocol: Fouling on rods occurs more rapidly than on flat panels, enabling rapid assessment of the performance of coatings.
6 mm diameter glass rods were cut to 150 mm length and prepared prior to coating by baking in a furnace at 150° C. for 24 hours and then cooling in a dessicator.
All pharmaceuticals were obtained in commercially available form. All tablets were reduced to fine powder with a mortar and pestle, and capsules were opened to extract the contents. The amount of drug powder required to attain the desired concentrations for all tests was calculated from product dosage information and then measured by weight on a high-resolution electronic balance. This was added to the coating and mixed thoroughly prior to application to obtain the concentration of 25 ug active ingredient per ml of coating mix.
The commercial antifouling product used to benchmark field experiments was VC Offshore with Teflon® manufactured by International Coatings.
For our experiments, a reduced copper coating (“VC50”) was prepared by mixing approximately 20 g of #YBA779 into 100 ml of #YBA707. The prepared coating was then allowed to stand so that bubbles from the mixing process dissipated. 15 ml centrifuge tubes were filled with 10 mls of prepared coating. Prepared glass rods were then immersed in the coating to a height of 100 mm and then suspended on a frame to air dry until coating cured.
Five replicate rods were tested for every experimental treatment, including controls. Two sets of controls were used, an uncoated blank control and a VC50 control without pharmaceutical additives. Rod were randomly arrayed on plastic vexar mesh attached to PVC frames and suspended at a depth of 10 cm from the water surface. […] Rods were examined visually weekly for the duration of testing, which typically lasts between 6 to 10 weeks. All fouling was scored as percentage cover of each category within a 6 mm×50 mm transect on each rod.

[4] = cited from earlier work; for Solubility: in words
[5] = strain 1 (Rhodovulum), hydrophobic surface (untreated polystyrene)
[6] = coated rods, 25 ug active ingredient per ml of VC50 coating
[7] = drug + VC50 rods vs VC50 control
[8] = drug + VC50 rods vs uncoated blank control
[9] = rods coated with drug + VC50, field test

CCCCCCCCCC(=O)OC1(c2ccc(Cl)cc2)CCN(CCCC(=O)c2ccc(F)cc2)CC1 [HDL, haloperidol decanoate]
Effect on bacterial adhesion [1]: significant inhibition of adhesion in strain 1 and 20 | Effect of drugs on adhesion of bacteria [1, 5]: *** (*** p < 0.005) | Effect of drugs on adhesion of bacteria ([1]; strain 20, hydrophobic surface (untreated polystyrene)): * (Significantly less adhesion observed: * p < 0.05) | Prevention of settlement of Bugula larvae [2]: 4 | Total hard fouling, mean cover [3, 6]: 30% | Performance against barnacles ([3]; coated rods, in words): did not significantly reduce barnacle cover compared to VC50 controls | Performance against serpulid polychaetes ([3]; coated rods, in words): completely excluded | Performance against spirorbid polychaetes ([3]; coated rods, in words): exclude spirorbid settlement; also recorded: significantly improve the performance of VC50 against spirorbid polychaetes | Overall performance in field assay [3]: 4 | Barnacles, difference in mean cover (%), drug vs VC50 [3, 7]: −6.7% | Serpulids, difference in mean cover (%), drug vs VC50 [3, 7]: −1.67% | Spirorbids, difference in mean cover (%), drug vs VC50 [3, 7]: −16.66% | Total hard fouling, difference in mean cover (%), drug vs VC50 [3, 7]: −25% | Barnacles, difference in mean cover (%), drug vs control [3, 8]: −69.7% | Serpulids, difference in mean cover (%), drug vs control [3, 8]: −3.33% | Spirorbids, difference in mean cover (%), drug vs control [3, 8]: +5% | Total hard fouling, difference in mean cover (%), drug vs control [3, 8]: −68% | Effect of addition of drug on antifouling performance of VC50 coating (total hard fouling) ([3]; drug at 25 ug per ml of VC50 coating, in words): significantly less on VC50+HDL treated rods; also recorded: significantly improved the performance of VC50 coating | Barnacles Mean cover (%) [3, 9]: 23.3% | Serpulids Mean cover (%) [3, 9]: 0% | Spirorbids Mean cover (%) [3, 9]: 6.67% | Total hard fouling Mean cover (%) ([3]; rods coated with drug + VC50, field test, percentage cover within 6 mm×50 mm transect): 30% | Solubility in water [4]: 10 µg/mL (≈ 18.9 µM) | Solubility [4]: almost insoluble in water

CN(C)C(=O)C(CCN1CCC(O)(c2ccc(Cl)cc2)CC1)(c1ccccc1)c1ccccc1 [IMD, Loperamide hydrochloride]
Effect on bacterial adhesion [1]: caused strain 1 to adhere to tissue culture surfaces | Effect of drugs on adhesion of bacteria ([1]; strain 1 (Rhodovulum), hydrophilic surface (tissue culture treated polystyrene)): *incr adhesion | Effect of drugs on adhesion of bacteria [1, 5]: * (Significantly less adhesion observed: * p < 0.05) | Effect of drugs on adhesion of bacteria ([1]; strain 14 (Vibrio), hydrophilic surface (tissue culture treated polystyrene)): * (Significantly less adhesion observed: * p < 0.05) | Prevention of settlement of Bugula larvae [2]: 7 | Reduction of total hard fouling cover compared to blank controls ([3]; coated rods): 97.3% | Barnacles, mean cover [3, 6]: 0.67% | Serpulids, mean cover [3, 6]: 0% | Spirorbids, mean cover [3, 6]: 0% | Total hard fouling, mean cover [3, 6]: 0.67% | Performance against barnacles ([3]; coated rods, in words): significantly less than on both controls | Performance against spirorbid polychaetes ([3]; coated rods, in words, hydrochloride): exclude spirorbid settlement; also recorded: no settlement by spirorbids | Overall performance in field assay [3]: 1 | Reduction of total hard fouling cover compared to VC50 alone ([3]; drug at 25 ug per ml of VC50 coating): 54.3% | Effect of addition of drug on antifouling performance of VC50 coating (total hard fouling) ([3]; drug at 25 ug per ml of VC50 coating, in words, hydrochloride): significantly increased the fouling resistance of the base coating; also recorded: significantly improved the performance of VC50 coating | Barnacles, difference in mean cover vs VC50 ([3]; vs VC50 control): −29.3% | Serpulids, difference in mean cover vs VC50 ([3]; vs VC50 control): −1.67% | Spirorbids, difference in mean cover vs VC50 ([3]; vs VC50 control): −23.33% | Total hard fouling, difference in mean cover vs VC50 ([3]; vs VC50 control): −54.3% | Barnacles, difference in mean cover vs control ([3]; vs uncoated blank control): −92.3% | Serpulids, difference in mean cover vs control ([3]; vs uncoated blank control): −3.33% | Spirorbids, difference in mean cover vs control ([3]; vs uncoated blank control): −1.67% | Total hard fouling, difference in mean cover vs control ([3]; vs uncoated blank control): −97.3% | Solubility [4]: slightly soluble in water
